{
  "source": "paper PMC5794978",
  "about": "“Molecular identification, transcript expression, and functional deorphanization of the adipokinetic hormone/corazonin-related peptide receptor in the disease vector, Aedes aegypti” (Scientific Reports, 2018)",
  "molecular_target": "T1, AedaeACPR-I (Aedes aegypti, UniProt A0A2L0VBG2)",
  "T1 construct": "only the ACPR-I transcript yields a complete receptor protein which we functionally deorphanized; expressed in transfected cells; host or cells: CHO-K1 cells stably expressing aequorin, transient transfection with pcDNA3.1+",
  "T1 sequence (A0A2L0VBG2 1-577)": "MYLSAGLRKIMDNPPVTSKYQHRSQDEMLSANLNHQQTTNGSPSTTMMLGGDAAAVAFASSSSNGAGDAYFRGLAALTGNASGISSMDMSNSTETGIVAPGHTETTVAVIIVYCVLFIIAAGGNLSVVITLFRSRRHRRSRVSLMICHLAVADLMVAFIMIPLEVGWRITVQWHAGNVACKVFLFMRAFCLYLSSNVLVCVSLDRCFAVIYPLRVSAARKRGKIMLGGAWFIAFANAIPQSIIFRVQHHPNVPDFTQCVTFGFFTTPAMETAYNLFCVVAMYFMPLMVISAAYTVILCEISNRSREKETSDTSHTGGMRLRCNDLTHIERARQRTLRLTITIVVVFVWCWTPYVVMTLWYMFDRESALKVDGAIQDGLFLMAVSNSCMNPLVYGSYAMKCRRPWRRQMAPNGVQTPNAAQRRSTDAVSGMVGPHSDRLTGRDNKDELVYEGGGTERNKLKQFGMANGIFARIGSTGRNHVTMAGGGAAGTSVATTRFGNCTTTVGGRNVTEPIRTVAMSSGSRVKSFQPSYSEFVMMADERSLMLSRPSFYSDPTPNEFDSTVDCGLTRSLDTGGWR",
  "experiment": "Heterologous receptor functional assay (aequorin bioluminescence) in CHO-K1 cells transiently expressing AedaeACPR-I",
  "type": "cell-based",
  "conditions": "for Receptor activation (luminescence response): CHO-K1 aequorin cells transiently expressing AedaeACPR-I, doses 10^-12 to 10^-5 M; for pEC50: CHOK1-aeq cells transiently expressing AedaeACPR-I, peptide doses 10^-12 to 10^-5 M in quadruplicate, luminescence response, average of multiple independent biological replicates (four independent transfections)",
  "method": "Functional activation of AedaeACPR-I was assayed using a previously established cell culture system involving a recombinant Chinese hamster ovary (CHO)-K1 cell line stably expressing aequorin[35]. […] At 48 hours post-transfection, cells were detached from the culture flasks using Dulbecco’s phosphate buffered saline (DPBS; Wisent Corporation, St. Bruno, QC) containing 5 mM EDTA and resuspended in BSA medium (DMEM-F12 media containing 0.1% bovine serum albumin, 1X antimycotic-antibiotic) to a concentration of 10^6–10^7 cells/mL. Coelenterazine h (Promega, Madison, WI, USA) was added to the cells to a final concentration of 5 μM, and incubated for 3 hours in the dark at room temperature on a stirrer set at 200 rpm. The cell suspension was then diluted 10-fold and incubated at room temperature for an additional hour. Serial dilutions of peptide ligands (Table 1) were prepared in BSA medium (10^−5 to 10^−12 M), and loaded in quadruplicates into 96-well luminescence plates (Greiner Bio-One, Germany). All peptides were commercially synthesized (Genscript, Piscataway, NJ) at a purity >90% and were prepared in dimethyl sulfoxide at a stock concentration of 1 mM. Cells were loaded into each well with an automatic injector unit and luminescence was measured for 20 seconds using a Synergy 2 Multi-Mode Microplate Reader (BioTek, Winooski, VT, USA). BSA medium alone was utilized as a negative control and 5 × 10^−5 M ATP was used as a positive control, which acts on endogenously expressed purinoceptors[36],[37]. EC50 values were calculated in GraphPad Prism 7.02 (GraphPad Software, San Diego, USA) from dose-dependent curves from four independent transfections.\nA heterologous receptor functional assay involving CHO-K1 cells was used to validate the cloned receptor as a bona fide ACP receptor. […] Our findings in this study are consistent with past reports, since similar binding specificity of ACP receptors has been observed previously in T. castaneum, A. gambiae, and R. prolixus with EC50 values reported in the low nanomolar range[17],[25]. Additionally, previous research in the aforementioned insects have also observed that the AKH receptors are not activated by ACP or corazonin peptides, and similarly, the corazonin receptors are not activated by ACP or AKH peptides[17],[25],[43],[44].\nFigure 4 Functional heterologous receptor assay of CHO-K1 aequorin cells transiently expressing the AedaeACPR-I. (a) Dose dependent effect on the bioluminescence response (mean 0–15 s) after the addition of between 10^−12–10^−5 M doses of A. aegypti ACP, AKH and CRZ peptides. Luminescence is normalized to the BSA control and plotted relative to the maximal response (10^−5 M). […] (b) Kinetics of the bioluminescence response measured between 0–5 s, 6–10 s, and 11–20 s time intervals, following the addition of 1 × 10^−6 M of the above peptides normalized to vehicle control (BSA media). Luminescence is normalized to the BSA control and plotted relative to the maximal response (10^−5 M). Data represent the mean ± standard error (n = 4).",
  "note": "pEC50: −log10 of the molar value. Entries after “also recorded” stand apart in the source; their conditions may differ. Non-standard residues stand in square brackets, D forms with d. Residues, ends and D or L forms follow the SMILES beside them. No end group written: not given here. pGlu = O=C1CC[C@@H](C(=O)O)N1",
  "data": [
    {"molecule": "AGNSGANSGMWFGPRL-NH2 [AedaeCAPA-PK1]", "values": [
      {"measurement": "Receptor activation (luminescence response)", "setting": "listed as AedaePK1", "result": "no detectable luminescence indicative of receptor activation; also recorded: No receptor activation was detected"},
      {"measurement": "pEC50", "result": "< 5.00"}
    ]},
    {"molecule": "CC(C)C[C@H](NC(=O)[C@@H]1CCC(=O)N1)C(=O)N[C@H](C(=O)N[C@@H](Cc1ccccc1)C(=O)N[C@H](C(=O)N1CCC[C@H]1C(=O)N[C@@H](CO)C(=O)N[C@@H](Cc1c[nH]c2ccccc12)C(N)=O)[C@@H](C)O)[C@@H](C)O", "note": "[AedaeAKH] ([pGlu]LTFTPSW-NH2)", "values": [
      {"measurement": "Receptor activation (luminescence response)", "result": "no detectable luminescence indicative of receptor activation; also recorded: No receptor activation was detected"},
      {"measurement": "pEC50", "result": "< 5.00"}
    ]},
    {"molecule": "GPTVGLFAFPRV-NH2 [AedaeCAPA1]", "values": [
      {"measurement": "Receptor activation (luminescence response)", "result": "No receptor activation was detected"},
      {"measurement": "Receptor activation (luminescence response)", "setting": "listed as AedaeCAPA-1", "result": "no detectable luminescence indicative of receptor activation"},
      {"measurement": "pEC50", "result": "< 5.00"}
    ]},
    {"molecule": "CC(C)[C@H](NC(=O)[C@@H]1CCC(=O)N1)C(=O)N[C@H](C(=O)N[C@@H](Cc1ccccc1)C(=O)N[C@@H](CO)C(=O)N[C@@H](CCCNC(=N)N)C(=O)N[C@@H](CC(=O)O)C(=O)N[C@@H](Cc1c[nH]c2ccccc12)C(=O)N[C@@H](CC(N)=O)C(=O)N[C@@H](C)C(N)=O)[C@@H](C)O", "note": "[AedaeACP] ([pGlu]VTFSRDWNA-NH2)", "values": [
      {"measurement": "pEC50", "result": 7.99}
    ]},
    {"molecule": "C[C@@H](O)[C@H](NC(=O)[C@H](CC(N)=O)NC(=O)[C@H](Cc1c[nH]c2ccccc12)NC(=O)CNC(=O)[C@H](CCCNC(=N)N)NC(=O)[C@H](CO)NC(=O)[C@H](Cc1ccc(O)cc1)NC(=O)[C@H](CCC(N)=O)NC(=O)[C@H](Cc1ccccc1)NC(=O)[C@@H](NC(=O)[C@@H]1CCC(=O)N1)[C@@H](C)O)C(=O)N[C@@H](CC(N)=O)C(N)=O", "note": "[AedaeCRZ] ([pGlu]TFQYSRGWNTN-NH2)", "values": [
      {"measurement": "Receptor activation (luminescence response)", "result": "no detectable luminescence indicative of receptor activation; also recorded: No receptor activation was detected"}
    ]}
  ]
}
